Test results from patent US12251469B2, “Sterically stabilized carrier compositions for treating a mammal” (VGSK Technologies, Inc., priority 2015, dated 2025).

Test system: sensitized mice
Experiment: Preliminary dose-response study of BUD in sensitized mice, histopathologic examination
Assay type: in vivo
Procedure: The dose of BUD chosen was based on preliminary dose-response studies with 5 to 50 μg of BUD as follows.
Each day, 5, 10, 15, 20 or 50 μg of BUD was administered to groups of sensitized mice, and the dose-dependent effects on the inflammatory parameters were evaluated.
The tissues were removed and fixed with 10% phosphate buffered formalin. Tissue samples were taken from the skin, spleen, liver, gastrointestinal tract, and kidney. The tissues were embedded in paraffin, sectioned at 5 μm thickness and stained with hematoxylin and eosin and analyzed using light microscopy.
Coded slides were examined by a pathologist in a blinded fashion for evidence of inflammatory changes, including epithelial hyperplasia and perivascular edema and accumulation of eosinophils, neutrophils, and mononuclear inflammatory cells. Each of the parameters evaluated was given an individual number score. Objective measurements of histopathological changes include aggregation of eosinophils around blood vessels (perivascular), accumulation of other inflammatory cells, presence of desquamation and hyperplasia of the epithelium, and infiltration of inflammatory cells.

`CCCC1O[C@@H]2C[C@H]3[C@@H]4CCC5=CC(=O)C=C[C@]5(C)[C@H]4[C@@H](O)C[C@]3(C)[C@]2(C(=O)CO)O1` (stereo partly shown) [Daily BUD, budesonide] was tested, and the “granulomas or abnormalities in any of the tissues evaluated” value was “no granulomas or abnormalities”.
